Measurements taken from patent US5760036A, “Aminediol protease inhibitors” (E. R. Squibb & Sons, Inc., priority 1995, dated 1998).

Target: T1, HIV protease (Human immunodeficiency virus type 1 group M subtype B, UniProt P04585)
T1 construct: and purified protease
Experiment: HIV Protease Assay
Assay type: biochemical
Details: 10 μM inhibitor, 4% DMSO, 450 μM substrate, pH 5.5, 30 minutes at 37° C., RP-HPLC
Method in brief: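 At a single final concentration of 10 μM (4% DMSO), inhibitors were added to a 30-minute, 37° C reaction of purified enzyme with 450 μM H2N-Val-Ser-Gln-Asn-(β-naphthyl-alanine)-Pro-Val-Ile-OH at pH 5.5 (sodium acetate, BSA). Hydrolysis was quantified by reverse-phase HPLC with 220 nm detection after acid quench.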

Q: Which “HIV Protease % Inhibition at 10 μM” value does the source give for `CC(C)(C)OC(=O)N[C@@H](Cc1ccccc1)[C@H](O)CNC[C@@H](O)[C@H](Cc1ccccc1)NC(=O)OC1c2ccccc2CC1O` (stereo partly drawn) [Compound 215, [1S-(1R*,2S*)(trans)]-[Iminobis[2-hydroxy-1-(phenylmethyl)-3,1-propanediyl)]biscarbamic acid, 1,1-dimethylethyl 2,3-dihydro-2-hydroxy-1H-inden-1-yl ester] here?
A: 66%

Q: How did the “HIV Protease % Inhibition at 10 μM” value turn out when `CC(C)(C)OC(=O)N[C@@H](Cc1ccccc1)[C@H](O)CNC[C@@H](O)[C@H](Cc1ccccc1)NC(=O)C(C)(O)c1ccccn1` (single isomer, unassigned; isomer b) [Compound 382, [1S-[1R*,2S*(2S*, 3R*)]]-[2-Hydroxy-3-[[2-hydroxy-3-[[2-hydroxy-1-oxo-2-(2-pyridinyl)propyl]amino]-4-phenylbutyl]amino]-1-(phenylmethyl)propyl]carbamic acid, 1.1-dimethylethyl ester, isomer B] was run?
A: 89%

Q: For `COC(=O)NC(C)(C(=O)N[C@@H](Cc1ccccc1)[C@H](O)CNC[C@@H](O)[C@H](Cc1ccccc1)NC(=O)OC(C)(C)C)C(C)(C)C` (single isomer, unassigned; isomer a) [Compound 373], which “HIV Protease % Inhibition at 10 μM” value is on record?
A: 85%

Q: `CC(C)(C)OC(=O)N[C@@H](Cc1ccccc1)[C@H](O)CNC[C@@H](O)[C@H](Cc1ccccc1)NC(=O)C1(O)CCCCC1(C)C` (single isomer, unassigned; isomer b) [Compound 362, [1S-[1R*,2S*(2S*,3R*)]]-[3-[[3-[[2,2-Dimethyl-1-hydroxycyclohexyl)carbonyl]amino]-2-hydroxy-4-phenylbutyl]amino]-2-hydroxy-1-(phenylmethyl) propyl]carbamic acid, 1,1-dimethylethyl ester, isomer B] was tested. Which “HIV Protease % Inhibition at 10 μM” value did it give?
A: 98%

Same assay, conditions: pH 5.5, 10 μM inhibitor, 4% DMSO, 450 μM substrate, pH 5.5, 30 minutes at 37° C., RP-HPLC; read-out: HIV Protease % Inhibition at 10 μM

Q: How did the inhibition at 10 µM turn out when `COC(=O)N[C@@H](C(=O)N[C@@H](Cc1ccccc1)[C@H](O)CNC[C@@H](O)[C@H](Cc1ccccc1)NC(=O)OC(C)(C)C)C(C)(C)C` (relative stereo) [Compound 340, [1S*,2R*(2R*,3S*)]-N-[3-[[3-[[(1,1-Dimethylethoxy)carbonyl]amino]-2-hydroxy-4-phenylbutyl]amino]-2-hydroxy-1-(phenylmethyl)propyl]-N^2-(2-methoxycarbonyl)-3-methyl-D-valinamide] was run?
A: 56%

Q: Which inhibition at 10 µM does the source give for `CC(C)(C)OC(=O)N[C@@H](Cc1ccccc1)[C@H](O)CNC[C@@H](O)[C@H](Cc1ccccc1)NC(=O)OC(C)(C)COCc1ccccc1` [Compound 157, [1S-(1R*,2S*)]-[Iminobis[2-hydroxy-1-(phenylmethyl)-3,1-propanediyl)]biscarbamic acid, 1,1-dimethylethyl 1,1-dimethyl-2-(phenylmethoxy)-ethyl ester] here?
A: 90%

Q: For `CC(C)(C)OC(=O)N[C@@H](Cc1ccccc1)[C@H](O)CNC[C@@H](O)[C@H](Cc1ccccc1)NC(=O)OC[C@H](O)CO` [Compound 231, [1S-(1R*,2S*),(S*)]-[Iminobis[2-hydroxy-1-(phenylmethyl)-3,1-propanediyl]]biscarbamic acid, 2,3-dihydroxypropyl 1,1-dimethylethyl ester], which inhibition at 10 µM is on record?
A: 83%

Q: How did the inhibition at 10 µM turn out when `O=C(Cc1ccccc1)N[C@@H](Cc1ccccc1)[C@H](O)CNC[C@@H](O)[C@H](Cc1ccccc1)NC(=O)Cc1ccccc1` [Compound 83, [R-(R*,S*)]-N,N'-[Iminobis[2-hydroxy-1-(phenylmethyl)-3,1-propanediyl[bisbenzeneacetamide] was run?
A: 19%

Q: Which inhibition at 10 µM does the source give for `CC(C)(C)OC(=O)N[C@@H](Cc1ccccc1)[C@H](O)CNC[C@@H](O)[C@H](Cc1ccc(OCCN2CCOCC2=O)cc1)NC(=O)OC(C)(C)C` [Compound 380, [1S-[1R*, 2S*(2S*, 3R*)]]-[3-[[3-[[(1,1-Dimethylethoxy)carbonyl]amino]-2-hydroxy-4-[4-[2-(3-oxo-4-morpholinyl)ethoxy]phenyl]-butyl]amino]-2-hydroxy-1-(phenylmethyl)propyl]-carbamic acid, 1,1-dimethylethyl ester] here?
A: 97%

Q: For `CC(C)(C)OC(=O)N[C@@H](Cc1ccccc1)[C@H](O)CNC[C@@H](O)[C@H](Cc1ccccc1)NC(=O)[C@@H]1CCCN1C(=O)OCc1ccccc1` [Compound 102, [S-[1R*,2S*(2S*,3R*)[]-N-[[[3-[[3-[[(1,1-Dimethylethoxy)carbonyl]amino]-2-hydroxy-4-phenylbutyl]amino]-2-hydroxy-1-(phenylmethyl)-propyl]-N^2-[phenylmethoxy)carbonyl]-L-prolinamide], which inhibition at 10 µM is on record?
A: 47%

Q: Which inhibition at 10 µM does the source give for `CC(C)(C)OC(=O)N[C@@H](Cc1ccccc1)[C@H](O)CNC[C@@H](O)[C@H](Cc1ccccc1)N[S+]([O-])C(C)(C)C` (stereo partly drawn) [Compound 182, [1S-[1R*,2S*(2S*,3R*)]]-[3-[[(1,1-Dimethylethyl)-sulfinyl]amino-2-hydroxy-4-phenylbutyl]amino]2-hydroxy-1-(phenylmethyl)propyl]carbamic acid, 1,1-dimethylethyl ester] here?
A: 41%

Q: How did the inhibition at 10 µM turn out when `CC(C)(C)OC(=O)N[C@@H](Cc1ccccc1)[C@H](O)CNC[C@@H](O)[C@H](Cc1ccccc1)NC(=O)C1(O)CCCCC1(C)C` (single isomer, unassigned; isomer a) [Compound 361, [1S-[1R*,2S*(2S*,3R*)]]-[3-[[3-[[2 , 2-Dimethyl-1-hydroxycyclohexyl)carbonyl]amino]-2-hydroxy-4-phenylbutyl]amino]-2-hydroxy-1-(phenylmethyl) propyl]carbamic acid, 1,1-dimethylethyl ester, isomer A] was run?
A: 97%

Q: How did the inhibition at 10 µM turn out when `C=Cc1ccccc1C[C@H](NC(=O)OC(C)(C)C)[C@H](O)CNC[C@@H](O)[C@H](Cc1ccccc1)NC(=O)OC(C)(C)C` [Compound 370, [1S-[1R*,2S*(2S*, 3R*)]]-[3-[[3-[[(1,1-Dimethylethoxy)carbonyl]amino]-2-hydroxy-4-(2-ethenylphenyl)butyl]amino]-2-hydroxy-1-(phenylmethyl)propxyl]carbamic acid, 1.1-dimethylethyl ester] was run?
A: 96%

Q: `CO[C@H](CNC[C@@H](O)[C@H](Cc1ccccc1)NC(=O)OC(C)(C)C)[C@H](Cc1ccccc1)NC(=O)OC(C)(C)C` [Compound 142, [1S-[1R*,2S*(2S*,3R*)]]-[3-[[3-[[(1,1-Dimethylethoxy)carbonyl]amino]-2-hydroxy-4-phenylbutyl]amino]-2-methoxy-1-(phenylmethyl)propyl]carbamic acid 1,1-dimethylethyl ester] was tested. Which inhibition at 10 µM did it give?
A: 30%

Q: How did the inhibition at 10 µM turn out when `CC(C)(C)OC(=O)N[C@@H](Cc1ccccc1)[C@H](O)CNC[C@@H](O)[C@H](Cc1ccccc1)NS(=O)(=O)C(C)(C)C` [Compound 183, [1S-[1R*,2S*(2S*,3R*)]]-[3-[[3-[[(2,2-Dimethylethyl)sulfonyl]amino]-2-hydroxy-4-phenylbutyl]amino]-2-hydroxy-1-(phenylmethyl)proyl]carbamic acid, 1,1-dimethylethyl ester] was run?
A: 35%

Q: With `COC(=O)N[C@H](C(=O)N[C@@H](Cc1ccccc1)[C@H](O)CNC[C@@H](O)[C@H](Cc1ccccc1)NC(=O)[C@](C)(O)C(C)(C)C)C(C)(C)C` (relative stereo) [Compound 383, [1R*,2S*[2S*, 3R*(S*)]]-N-[2-Hydroxy-3-[[2-hydroxy-3-[(2-hydroxy-2,3,3-trimethyl-1-oxobutyl)amino]-4-phenylbutyl]amino]-1-(phenylmethyl)propyl]-N^2-(2-methoxycarbonyl)-3-methyl-L-valinamide] as the compound, how does the inhibition at 10 µM read?
A: 99%

Q: With `CC(C)(C)OC(=O)N[C@@H](Cc1ccccc1)[C@H](O)CNC[C@@H](O)[C@H](Cc1ccccc1)NC(=O)OC(C)(CO)CO` [Compound 251, [R-(R*,S*)]-[Iminobis[2-hydroxy-1-(phenylmethyl)-3,1-propanediyl)]biscarbamic acid, 1,1-bis(hydroxymethyl)ethyl 1,1-dimethylethyl ester] as the compound, how does the inhibition at 10 µM read?
A: 98%

Q: With `CC(C)(C)OC(=O)N[C@@H](Cc1ccccc1)[C@H](O)CN[C@H](Cc1ccccc1)[C@H](O)CNC(=O)OCc1ccccc1` [Compound 189, [2R-[2R*,3R*(2R*,3S*)]]-[3-[[3-[[(1,1-Dimethylethoxy)carbonyl]amino]-2-hydroxy-4-phenylbutyl]amino]-2-hydroxy-4-phenylbutyl]-carbamic acid, phenylmethyl ester] as the compound, how does the inhibition at 10 µM read?
A: 23%

Q: Which inhibition at 10 µM does the source give for `CC(C)(C)OC(=O)N[C@@H](Cc1ccccc1)[C@H](O)CNC[C@@H](O)[C@H](Cc1ccccc1)NC(=O)[C@@H](O)C(C)(C)C` [Compound 335, [1S-[1R*,2S*[2S*,3R*(R*)]]]-[3-[[3-[(2-Hydroxy-3,3-dimethyl-1-oxobutyl)amino]-2-hydroxy-4-phenylbutyl]amino]-2-hydroxy-1-(phenylmethyl)propyl]carbamic acid, 1,1-dimethylethyl ester] here?
A: 89%

Q: With `CC(C)(C)OC(=O)NCC(O)[C@H](Cc1ccccc1)NC[C@@H](O)[C@H](Cc1ccccc1)NC(=O)OC(C)(C)C` (mixture of isomers) [Compound 188, [3S-[3R*(2S*,3R*)]]-[3-[[3-[[(1,1-Dimethylethoxy)carbonyl]amino]-2-hydroxy-4-phenyl-butyl]amino]-2-hydroxy-4-phenylbutyl]carbamic acid, 1,1-dimethylethyl ester, 2:1 diastereomer mixture] as the compound, how does the inhibition at 10 µM read?
A: 21%

Q: How did the inhibition at 10 µM turn out when `CON=C(C(=O)N[C@@H](Cc1ccccc1)[C@H](O)CNC[C@@H](O)[C@H](Cc1ccccc1)NC(=O)OC(C)(C)C)C(C)(C)C` [Compound 296, [1S-[1R*,2S*(2S*,3R*)]]-[2-Hydroxy-3-[[2-hydroxy-3-[[2-(methoxyimino)-3,3-dimethyl-1-oxobutyl]amino]-4-phenylbutyl]amino]-1-(phenylmethyl)propyl]carbamic acid, 1,1-dimethylethyl ester] was run?
A: 37%
